Our source for the IC50 values is ChEMBL document CHEMBL4041466, “Synthesis and evaluation of new benzodioxole-based dithiocarbamate derivatives as potential anticancer agents and hCA-I and hCA-II inhibitors” (Eur J Med Chem, 2017).

In one assay the test system is C6. The assay can be described thus: Antiproliferative activity against rat C6 cells after 24 hrs by MTT assay. The note with it: C6, 24 h.
The test system of another assay is A549. Description: Antiproliferative activity against human A549 cells after 24 hrs by MTT assay. The note with it: A549, 24 h.

≈ marks a conversion by molar mass, not a printed value. Where only a bound is given, the exact number is not on record here.

Turning to `O=C(CSC(=S)NN1CCN(c2ccc([N+](=O)[O-])cc2)CC1)NCc1ccc2c(c1)OCO2`, the concentration for half-maximal inhibition (IC50) was 23.3 µg/mL (≈ 47.7 µM) with C6 and more than 1000 µg/mL in the assay with A549.
With `CCN1CCN(NC(=S)SCC(=O)NCc2ccc3c(c2)OCO3)CC1`, the IC50 in the assay on C6 was 157 µg/mL (≈ 395 µM); in the assay on A549, 850 µg/mL (≈ 2140 µM).
The matching figures for `O=C(CSC(=S)NN1CCN(c2ncccn2)CC1)NCc1ccc2c(c1)OCO2`: 48.3 µg/mL (≈ 108 µM) and 833 µg/mL (≈ 1870 µM).
With `COc1ccc(N2CCN(NC(=S)SCC(=O)NCc3ccc4c(c3)OCO4)CC2)cc1`, the IC50 in the assay on C6 was 58.3 µg/mL (≈ 123 µM); in the assay on A549, more than 1000 µg/mL.
The matching figures for `O=C(CSC(=S)NN1CCN(c2ccccc2)CC1)NCc1ccc2c(c1)OCO2`: 163 µg/mL (≈ 367 µM) and more than 1000 µg/mL.
Consider `CC1CCN(NC(=S)SCC(=O)NCc2ccc3c(c2)OCO3)CC1`, for which the values for the IC50 in the assay on C6 and in the assay on A549 were 567 µg/mL (≈ 1490 µM) and 810 µg/mL (≈ 2120 µM), respectively.
For `O=C(CSC(=S)NN1CCCCC1)NCc1ccc2c(c1)OCO2`, the IC50 in the assay with C6 was 633 µg/mL (≈ 1720 µM); with A549, 875 µg/mL (≈ 2380 µM).
Regarding `O=C(CSC(=S)NN1CCSCC1)NCc1ccc2c(c1)OCO2`, the IC50 in the assay on C6 was 220 µg/mL (≈ 571 µM); in the assay on A549, more than 1000 µg/mL.
`O=C(CSC(=S)NN1CCOCC1)NCc1ccc2c(c1)OCO2`: the values for the IC50 in the assay with C6 and with A549 were 207 µg/mL (≈ 559 µM) and 700 µg/mL (≈ 1890 µM), respectively.
Turning to `CN1CCN(NC(=S)SCC(=O)NCc2ccc3c(c2)OCO3)CC1`, the figures for the IC50 in the assay with C6 and in the assay with A549 were 167 µg/mL (≈ 436 µM) and more than 1000 µg/mL, respectively.
